Patent publication US9879036B2, “Mitochondrial aldehyde dehydrogenase-2 binding compounds and methods of use thereof” (Aviv Therapeutics, Inc., priority 2014, dated 2018)
Changes are numbered by the printed parent chain.

What was measured:
Format in all cases: biochemical
ALDH2*1/*1 = target: T1, ALDH2*1/*1 (Homo sapiens, UniProt P05091); assay: ALDH2 enzymatic activity, NADH accumulation at 340 nm, acetaldehyde substrate, wild type; settings: relative to baseline enzymatic activity (100%); for activity at 2.5 µM: 2.5 μM compound; for activity at 5 µM: 5 μM compound; for activity at 10 µM: 10 μM compound; for activity at 20 µM: 20 μM compound
T1 construct: His-tag (N); made in house; host or cells: E. coli BL21 (pTrcHis vector)
T1 sequence (P05091 18-517): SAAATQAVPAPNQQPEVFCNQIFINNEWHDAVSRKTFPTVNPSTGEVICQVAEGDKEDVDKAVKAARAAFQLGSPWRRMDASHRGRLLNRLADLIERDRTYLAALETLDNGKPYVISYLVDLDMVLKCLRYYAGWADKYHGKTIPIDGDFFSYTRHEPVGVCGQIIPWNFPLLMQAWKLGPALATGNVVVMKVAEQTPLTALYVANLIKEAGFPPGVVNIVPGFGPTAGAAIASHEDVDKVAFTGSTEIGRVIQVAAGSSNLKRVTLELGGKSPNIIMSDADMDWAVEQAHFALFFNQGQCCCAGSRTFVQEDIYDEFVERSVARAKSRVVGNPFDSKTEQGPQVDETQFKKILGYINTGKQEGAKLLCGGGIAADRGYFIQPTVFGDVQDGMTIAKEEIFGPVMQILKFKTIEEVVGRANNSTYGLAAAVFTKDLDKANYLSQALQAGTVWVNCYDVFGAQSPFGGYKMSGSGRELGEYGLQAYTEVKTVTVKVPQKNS
Experimental: (§1) ALDH2 catalyzes the oxidative reaction of substrate acetaldehyde to acetic acid using NAD^+ as a cofactor. Enzymatic activity, or catalytic rate, of aldehyde dehydrogenase (ALDH2) are measured spectrophotometrically at UV wavelength λ340 nm by the accumulation of reduced product NADH derived from NAD^+. Absorbance at λ340 nm is quantitatively proportional to the amount of NADH being produced over time (6.22 O.D. unit=1 mmol of NADH, measured in a 1-cm width standard cuvette). This method is well-established in the literature [e.g. Rex et al., Alcohol Clin. Exp. Res. 9, 147 (1985)].
as §1, with “can be” for “are”
(§2) Cloning, expression and purification of human ALDH2 wild type and ALDH2*2 recombinant mutant enzymes: Full-length wild type human ALDH2 cDNA was purchased from ATCC (No. MGC-1806. GenBank ID: BC002967). The 18-amino acid mitochondria transport signal sequence was removed by PCR and cloned into the NheI/HindIII sites of a His-tag vector, pTrcHis, using standard molecular cloning techniques. The human ALDH2* cDNA construct containing the Asian E487K mutation was obtained by site-directed mutagenesis to create the E487K substitution of the wild type ALDH2. Both human clones were designed to express a recombinant protein with the His-tag at the N-terminus of the protein. For the co-expression experiments of human ALDH2 wild type and ALDH2*2 heterotetramers, a wild type ALDH2 gene and a ALDH2 E487K gene were inserted separately into the two multiple cloning sites of pETDuet-1 vector. (Novagen, CA, USA). All the vectors were transformed into BL21 E. coli host cells and subjected to 0.5 mM IPTG induction for protein expression at 30° C. Purifications of the recombinant proteins by affinity nickel columns (HisTrap, GE Healthy Science, USA) were carried out using standard protocols according to manufacturer's instructions (Novagen, USA).
(§3) ALDH2 catalyzes the oxidative reaction of substrate acetaldehyde to acetic acid using NAD^+ as a cofactor. Enzymatic activity, or catalytic rate, of aldehyde dehydrogenase (ALDH2) can be measured spectrophotometrically at UV wavelength λ340 nm by the accumulation of reduced product NADH derived from NAD^+. Because compounds of formula (I) are considered to be agonists or “activators” of ALDH2 the enzymatic activity measured will exceed 100% of the baseline enzymatic activity of the enzyme in its normal activation state. As the concentration of the compounds of formula (I) decreases from 20 micromolar to 0.16 micromolar in the presence of ALDH, a decrease in the activation of enzymatic activity is observed for the wild-type ALDH2*1/*1 and the heterozygous form ALDH2*1/*2.

ALDH2*1/*2 = target: T2, ALDH2*1/*2 (Homo sapiens, UniProt P05091, E504K); assay: ALDH2 enzymatic activity, NADH accumulation at 340 nm, acetaldehyde substrate, heterozygous form; settings: relative to baseline enzymatic activity (100%); for activity at 2.5 µM: 2.5 μM compound; for activity at 5 µM: 5 μM compound; for activity at 10 µM: 10 μM compound; for activity at 20 µM: 20 μM compound
T2 construct: His-tag; made in house; host or cells: E. coli BL21 (pETDuet-1 co-expression)
T2 sequence (P05091 18-517): T1 sequence (P05091 18-517)
T2 sequence (P05091 18-517 E504K): T1 sequence (P05091 18-517) with E487K
Experimental: as §1
as §1, with “can be” for “are”
as §2, §3

ALDH2 = target: T3, ALDH2 (Homo sapiens, UniProt P05091); assay: ALDH2 activity with 20 μM of the compound (Table 3); settings: 20 μM compound
T3 construct: His-tag (N); made in house; host or cells: E. coli BL21
T3 sequence (P05091 18-517): T1 sequence (P05091 18-517)
Experimental: as §1
as §1, with “can be” for “are”
as §3

Row | SMILES | activity at 2.5 µM (ALDH2*1/*1) | activity at 5 µM (ALDH2*1/*1) | activity at 10 µM (ALDH2*1/*1) | activity at 20 µM (ALDH2*1/*1) | activity at 2.5 µM (ALDH2*1/*2) | activity at 5 µM (ALDH2*1/*2) | activity at 10 µM (ALDH2*1/*2) | activity at 20 µM (ALDH2*1/*2) | activity at 20 µM (ALDH2)
1 | COc1ccc(CNC(=O)c2cc(-c3ncccc3CO)cnc2OCC2CC2)cc1F [AC8] | 164% | 223% | 319% | 370% | 221% | 299% | 328% | 479% | > 250%
2 | COc1ccc(CNC(=O)c2cc(-c3c(CO)cccc3N(C)C)cnc2OCC2CC2)cc1F [AC15] | 124% | 106% | 143% | 169% | 105% | 129% | 160% | 203% | 150 to 250%
3 | COc1ccc(CNC(=O)c2cc(-c3c[n+]([O-])ccc3CO)ccc2OCC2CC2)cc1F [AC13] | 164% | 168% | 215% | 237% | 146% | 195% | 247% | 296% | 150 to 250%
4 | COc1ccc(CNC(=O)c2cc(-c3ccccc3CO)ncc2OCC2CC2)cc1F [AC3] | 150% | 195% | 220% | 319% | 180% | 245% | 310% | 376% | 150 to 250%
5 | COc1ccc(CNC(=O)c2cc(-c3cccnc3CO)cnc2OCC2CC2)cc1F [AC11] | 123% | 135% | 169% | 211% | 125% | 158% | 185% | 248% | 150 to 250%
6 | COc1ccc(CNC(=O)c2cc(-c3ccncc3CO)ccc2OCC2CC2)cc1F [AC9] | 218% | 276% | 354% | 376% | 224% | 287% | 317% | 402% | > 250%
7 | COc1ccc(CNC(=O)c2cc(-c3cnccc3CO)cnc2OCC2CC2)cc1F [AC10] | 172% | 238% | 346% | 414% | 239% | 321% | 388% | 531% | > 250%
8 | COc1ccc(CNC(=O)c2cc(-c3ccc(F)cc3CO)cnc2OCC2CC2)cc1F [AC4] | 204% | 280% | 300% | 363% | 266% | 338% | 390% | 423% | > 250%

More lines, now with the values ahead:

Row | activity at 2.5 µM (ALDH2*1/*1) | activity at 5 µM (ALDH2*1/*1) | activity at 10 µM (ALDH2*1/*1) | activity at 20 µM (ALDH2*1/*1) | activity at 2.5 µM (ALDH2*1/*2) | activity at 5 µM (ALDH2*1/*2) | activity at 10 µM (ALDH2*1/*2) | activity at 20 µM (ALDH2*1/*2) | activity at 20 µM (ALDH2) | SMILES
9 | 170% | 238% | 308% | 403% | 157% | 218% | 255% | 93% | > 250% | COc1ccc(CNC(=O)c2cc(-c3cc(F)ccc3CO)cnc2OCC2CC2)cc1F [AC20]
10 | 293% | 315% | 379% | 364% | 323% | 420% | 419% | 410% | > 250% | COc1ccc(CNC(=O)c2cc(-c3ccsc3CO)ccc2OCC2CC2)cc1F [AC27]
11 | 106% | 106% | 105% | 133% | 104% | 116% | 126% | 138% | 100 to 150% | COc1ccc(CNC(=O)c2cc(-c3c(CO)cccc3N(C)C)ccc2OCC2CC2)cc1F [AC16]
12 | 273% | 341% | 422% | 382% | 267% | 321% | 343% | 260% | > 250% | COc1ccc(CNC(=O)c2cc(-c3ccsc3CO)cnc2OCC2CC2)cc1F [AC25, 2-(cyclopropylmethoxy)-N-(3-fluoro-4-methoxybenzyl)-5-(2-(hydroxymethyl)thiophen-3-yl)nicotinamide]
13 | 197% | 252% | 366% | 430% | 201% | 239% | 338% | 456% | > 250% | COc1ccc(CNC(=O)c2cc(-c3sccc3CO)ccc2OCC2CC2)cc1F [AC28]
14 | 199% | 235% | 352% | 394% | 188% | 238% | 261% | 281% | > 250% | COc1ccc(CNC(=O)c2cc(-c3sccc3CO)cnc2OCC2CC2)cc1F [AC26, 2-(cyclopropylmethoxy)-N-(3-fluoro-4-methoxybenzyl)-5-(3-(hydroxymethyl)thiophen-2-yl)nicotinamide]
15 | 175% | 248% | 321% | 428% | 149% | 234% | 269% | 216% | > 250% | COc1ccc(CNC(=O)c2cc(-c3cscc3CO)cnc2OCC2CC2)cc1F [AC24]
